Results taken from article PMC6325233, “A Novel Actin Binding Drug with In Vivo Efficacy” (Antimicrobial Agents and Chemotherapy, 2018).
Read-outs that look alike come from different tables or passages of the source.

Key:
[1] = test system: rabbit skeletal muscle G-actin; assay: Affinity pulldown with biotinylated alkyne-OF and streptavidin beads; type: binding; conditions: 24 μg G-actin, 8 μg alkyne-OF, azide-biotin, streptavidin beads, silver stain
Protocol: (§1) Purified rabbit skeletal muscle filamentous actin (catalog number AKF99) and G-actin (catalog number AKL95) were purchased from Cytoskeleton, Inc. Actin was reconstituted in Milli-Q water to achieve a stock concentration of 0.4 mg/ml in a buffer that consisted of 5 mM Tris-HCl (pH 8.0), 0.2 mM CaCl2, 0.2 mM ATP, 2 mM MgCl2, and 5% (wt/vol) sucrose as directed by the supplier. This solution was stored at −80°C in 50-μl aliquots until use. Immediately before use, each aliquot was thawed by placing it in a 37°C water bath for 5 min and then at room temperature. For all studies, 24 μg of F- or G-actin was used with 8 μg alkyne-OF. F-actin filaments were reacted with native occidiofungin for 15 min at room temperature at molar ratios of 1:10 (24 μg actin to 8 μg native occidiofungin) and 1:5 (24 μg actin to 4 μg native occidiofungin). As per the manufacturer’s instructions, Acti-stain 670 phalloidin (Cytoskeleton, Inc.) was used as a control in an in vitro actin filament binding study. Actin filaments treated with DMSO (solvent blank negative control) were stained and observed for comparison. The actin filaments were visualized on an Olympus FV1000 confocal microscope. Pulldown assays were performed using alkyne-OF with azide-biotin (Click-iT protein reaction buffer kit; Thermo Fisher Scientific), according to the manufacturer’s instructions. The proteins captured by biotinylated alkyne-OF on streptavidin beads were eluted by boiling in 50 µl of SDS sample loading buffer. The sample was electrophoresed through a 12% SDS gel, and protein bands were visualized by silver staining (Pierce Silver stain kit; Thermo Fisher Scientific) according to the manufacturer’s protocol. F- and G-actin treated with DMSO and native occidiofungin were used as the controls.

[2] = target: T1, rabbit skeletal muscle F-actin (Oryctolagus cuniculus, UniProt P68135); assay: as above; type: binding; conditions: 24 μg F-actin, 8 μg alkyne-OF, azide-biotin, streptavidin beads, silver stain
T1 construct: Purified rabbit skeletal muscle filamentous actin (catalog number AKF99); purchased Cytoskeleton, Inc. AKF99; host or cells: rabbit skeletal muscle (tissue-purified)
Protocol: as §1

[3] = test system: C. albicans (ATCC 66027); assay: DNA (nuclear) segregation assay, DAPI; type: cell-based; conditions: for percentage of cells in category, column 2: untreated 10.3 ± 3.8; for percentage of cells in category, column 4: untreated 1.0 ± 0.4; for percentage of cells in category, column 3: untreated 26.6 ± 5.6
Protocol: (§2) The hyphal induction assay was performed as previously reported with minor modifications ([58]). Candida albicans strain ATCC 66027 was grown in yeast extract-peptone-dextrose (YPD) medium at 30°C for 48 h to reach saturation with an OD600 of 17 to 19. Cells were diluted into fresh Spider medium (1% nutrient broth, 1% mannitol, 0.2% K2HPO4) to obtain an OD600 of 0.05 (∼0.5 × 10^6 to 1 × 10^6 cells/ml) and incubated at 37°C with shaking to induce hyphal formation. Immediately prior to the 37°C incubation, occidiofungin (1 µg/ml; 0.5× MIC) or an equal volume of DMSO was added to the cultures. Aliquots were removed at 0-, 1-, 2-, 4-, and 6-h time points and fixed in 3.7% formaldehyde for later analysis of cell morphology by light microscopy. More than 200 cells were examined for each time point, and cells were scored as having either a yeast or filamentous form, with cells showing any outgrowth considered filamentous. DNA segregation assays were performed using a mid-log culture of S. cerevisiae (BY4743, diploid) and C. albicans (ATCC 66027). The cultures were diluted in fresh YPD medium to obtain OD600s of 0.095 (∼1 × 10^6 to 1.5 × 10^6 cells/ml) and 0.05 (0.5 × 10^6 to 0.8 × 10^6 cells/ml), respectively. A blank vehicle control (DMSO) or occidiofungin (1 µg/ml; 0.5× MIC) was added, and the cultures were placed at 30°C with shaking. Samples were removed at 0.5, 1, and 2 h, and the cells fixed by adding formaldehyde (3.7%). The cells were washed in phosphate-buffered saline (PBS) and permeabilized by adding an equivalent volume of PBS containing 0.2% Triton X-100 for 30 min at room temperature. The cells were washed thrice in PBS, added to concanavalin A-treated glass slides, and overlaid with Vectashield plus DAPI (4′,6-diamidino-2-phenylindole). Images were viewed using a Nikon 50i fluorescence microscope with a 100× oil immersion objective and DAPI filter. Cells were scored on the basis of bud morphology and DNA location. One-way analyses of variance (ANOVAs) with post hoc Tukey’s honestly significant difference (HSD) testing were used to determine statistically significant differences in the distributions between treated and untreated cells. In addition, FM-464 uptake assays were used to observe endocytosis. Three 1-ml aliquots of S. pombe (OD600 of 0.6 to 0.8) were treated with 1 μl DMSO, 0.5 μg/ml (0.5× MIC), or 1 μg/ml (1× MIC) of native occidiofungin for 30 min at 30°C. The cells were washed thrice with PBS and resuspended in YPD medium containing […] FM-464 (Thermo Fisher Scientific). The cells were incubated for 60 min at 30°C, followed by two washes in PBS before visualizing on an Olympus FV1000 confocal microscope with a 40×/0.9 dry objective. Lastly, actin polymerization and depolymerization assays were performed using the Actin polymerization biochem kit (catalog number BK003; Cytoskeleton, Inc.) according to the manufacturer’s instructions.

[4] = test system: S. cerevisiae (BY4743, diploid); assay: DNA (nuclear) segregation assay, DAPI; type: cell-based; conditions: for percentage of cells in category, column 2 / percentage of cells in category, column 4 / percentage of cells in category, column 3 / percentage of cells in category, column 1: 0.5X MIC, 30 °C, two experiments; for percentage of cells in category, column 2: untreated 3.9 ± 1.2; for percentage of cells in category, column 4: untreated 1.4 ± 0.5; for percentage of cells in category, column 3: untreated 13.7 ± 2.5; for percentage of cells in category, column 1: untreated 80.4 ± 2.6
Protocol: as §2

[5] = 0.5X MIC, 0.5 h, 30 °C, two experiments
[6] = 0.5X MIC, 1 h, 30 °C, two experiments, * p < 0.05
[7] = subinhibitory concentration, within 30 min

Substance: occidiofungin
- copurification/binding with G-actin [1]: directly bind to F- or G-actin
- copurification/binding with G-actin ([1]; listed as native OF): actin was not detected in the control lanes
- copurification/binding with F-actin [2]: directly bind to F- or G-actin
- copurification/binding with F-actin ([2]; listed as native OF): actin was not detected in the control lanes
- percentage of cells in category, column 1 [3]: 58.1 ± 6.6%
- percentage of cells in category, column 2 ([3]; 0.5X MIC, 0.5 h, 30 °C, two experiments, * p < 0.05): 1 ± 0.7%
- percentage of cells in category, column 4 [3, 5]: 5.6 ± 0.4%
- percentage of cells in category, column 3 [3, 5]: 35.3 ± 6.8%
- percentage of cells in category, column 4 [3, 6]: 8.1 ± 2.8%
- percentage of cells in category, column 2 [3, 6]: 0.9 ± 0.1%
- percentage of cells in category, column 3 ([3]; 0.5X MIC, 1 h, 30 °C, two experiments): 28.1 ± 1.3%
- percentage of cells in category, column 1 ([3]; 0.5X MIC, 1 h, 30 °C, two experiments, untreated 62.1 ± 8.8): 62.9 ± 4.2%
- percentage of cells in category, column 2 ([3]; 0.5X MIC, 2 h, 30 °C, two experiments, * p < 0.05): 0.4 ± 0.6%
- percentage of cells in category, column 4 ([3]; 0.5X MIC, 2 h, 30 °C, two experiments, ** p < 0.01): 11.4 ± 3.8%
- percentage of cells in category, column 3 ([3]; 0.5X MIC, 2 h, 30 °C, two experiments): 26.3 ±12.1%
- percentage of cells in category, column 1 ([3]; 0.5X MIC, 2 h, 30 °C, two experiments, untreated 62.1 ± 8.8): 61.9 ± 7.7%
- binucleated cells [3, 7]: more binucleated cells
- percentage of cells in category (bud morphology and DNA localization), column 1 [4]: 66.9 ± 6.8%
- percentage of cells in category, column 2 ([4]; 0.5 h, * p < 0.05): 0.2 ± 0.3%
- percentage of cells in category, column 4 ([4]; 0.5 h, ** p < 0.01): 12.3 ± 0.6%
- percentage of cells in category, column 3 ([4]; 0.5 h): 20.5 ± 6.5%
- percentage of cells in category, column 2 ([4]; 1 h, * p < 0.05): 0.4 ± 0.1%
- percentage of cells in category, column 3 ([4]; 1 h, * p < 0.05): 25.4 ± 4.7%
- percentage of cells in category, column 4 ([4]; 1 h, ** p < 0.01): 15.1 ± 2.9%
- percentage of cells in category, column 1 ([4]; 1 h, ** p < 0.01): 59.1 ± 7.7%
- percentage of cells in category, column 2 ([4]; 2 h, * p < 0.05): 0.6 ± 0.8%
- percentage of cells in category, column 1 ([4]; 2 h, * p < 0.05): 63.5 ± 2.2%
- percentage of cells in category, column 4 ([4]; 2 h, ** p < 0.01): 13.3 ± 0.7%
- percentage of cells in category, column 3 ([4]; 2 h): 22.7 ± 2.3%
- binucleated cells [4, 7]: more binucleated cells
